Experimental data reported in patent EP4678634A1, “ANDROGEN RECEPTOR MODULATORS AND USES THEREOF” (Haihe Biopharma Co., Ltd., priority 2023, dated 2024).

Target: T1, Androgen receptor (AR) (Homo sapiens, UniProt P10275)
T1 construct: expressed in transfected cells; host or cells: HEK293T (AR+ARE/Luc)
T1 sequence (P10275 1-920): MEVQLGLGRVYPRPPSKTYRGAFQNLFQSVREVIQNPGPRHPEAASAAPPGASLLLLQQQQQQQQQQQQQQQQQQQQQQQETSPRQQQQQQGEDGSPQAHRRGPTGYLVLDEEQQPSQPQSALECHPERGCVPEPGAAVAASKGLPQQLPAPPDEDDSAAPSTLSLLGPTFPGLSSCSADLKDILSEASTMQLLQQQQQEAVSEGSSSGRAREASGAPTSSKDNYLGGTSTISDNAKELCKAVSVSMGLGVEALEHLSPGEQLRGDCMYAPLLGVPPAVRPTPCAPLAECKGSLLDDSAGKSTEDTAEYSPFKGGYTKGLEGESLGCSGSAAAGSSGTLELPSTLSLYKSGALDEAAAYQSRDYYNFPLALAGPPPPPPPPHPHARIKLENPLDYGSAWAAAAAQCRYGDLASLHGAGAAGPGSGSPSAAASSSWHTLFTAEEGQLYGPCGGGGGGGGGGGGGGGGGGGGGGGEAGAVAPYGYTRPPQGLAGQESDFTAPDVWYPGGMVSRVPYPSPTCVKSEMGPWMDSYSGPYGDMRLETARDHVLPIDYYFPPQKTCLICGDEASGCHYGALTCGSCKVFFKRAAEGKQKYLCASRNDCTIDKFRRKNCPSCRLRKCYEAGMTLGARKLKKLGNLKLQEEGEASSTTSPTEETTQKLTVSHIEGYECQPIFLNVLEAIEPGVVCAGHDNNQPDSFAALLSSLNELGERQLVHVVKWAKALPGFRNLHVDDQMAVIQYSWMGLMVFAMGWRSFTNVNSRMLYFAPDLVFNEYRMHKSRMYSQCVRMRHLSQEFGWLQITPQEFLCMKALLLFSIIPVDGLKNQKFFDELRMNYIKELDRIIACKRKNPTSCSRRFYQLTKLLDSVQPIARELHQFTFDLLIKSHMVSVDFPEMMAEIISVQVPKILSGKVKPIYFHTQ
Assay: Androgen receptor (AR) reporter gene assay (luciferase)
Assay type: cell-based
Conditions: AR+ARE/Luc HEK293T cells, stimulated with 11-KDHT, 24h incubation, Bright-Lite luminescence; read-out: HEK293 Luc IC50
Protocol: Androgen receptor (AR) reporter gene assay
Experimental reagents: 11-Ketodihydrotestosterone (11-KDHT) was purchased from MCE (cat.HY-135794); Enzalutamide (MDV3100) was purchased from Selleck (cat.S1250); Bright-Lite Luciferase Assay kit was purchased from Vazyme (cat.DD1204-01);
• 1. dissolve the described compounds in 100% DMSO at a final concentration of 10 mM. 100 nL each of 400X compound to be tested and 400X 11-KDHT (40 nM) were added to a 384-well assay plate with Echo, followed by 20 µL of complete medium, and centrifuged at 1000 rpm for 1 min, and oscillated for 20-30 min at room temperature. • 2. 20 µL of AR+ARE/Luc HEK293T cells (10,000 cells/well) were inoculated into the assay plate containing the compounds and 11-KDHT, and centrifuged at 1000 rpm for 1 min. The assay plate was incubated in a 37 °C CO2 incubator for 24h. • 3. 40 µL of Bright-Lite assay reagent was transferred to each well of the assay plate, centrifuged at 1000 rpm for 1 min, and shaken for 2 min at room temperature protected from light. Luminescence values (RLU) were measured using Envision. Based on the results, the IC50 values of the compounds described were calculated. Table 1 HEK293-Luc% inhibition IC50 of representative compounds

Molecule `CN1CCc2c(cc(Cl)c(OCCCl)c2Cl)C1c1ccc2[nH]ncc2c1` (racemic) [HANT-146, 5,7-dichloro-6-(2-chloroethoxy)-1-(1H-indazol-5-yl)-2-methyl-1,2,3,4-tetrahydroisoquinoline] has an IC50 of 1 to 500 nM.

`N#Cc1cc2c(c(Cl)c1OCCCl)CCCC2Nc1cnc2[nH]ncc2c1` (racemic) [HANT-192, 8-((1H-pyrazolo[3,4-b]pyridin-5-yl)amino)-4-chloro-3-(2-chloroethoxy)-5,6,7,8-tetrahydronaph thalene-2-carbonitrile] was tested, and the IC50 was 1 to 500 nM.

With `N#Cc1cc2c(c(Cl)c1OCCCl)CCCC2c1cnc(N)nc1` (racemic) [HANT-204] the IC50 was 1 to 500 nM.

`ClCCOc1c(Cl)cc2c(c1Cl)CCCC2c1ccc2[nH]ncc2c1` (stereo not drawn) [HANT-100, 5-(5,7-dichloro-6-(2-chloroethoxy)-1,2,3,4-tetrahydronaphthalen-1-yl)-1H-indazole] showed an IC50 of 1 to 500 nM.

For `Oc1ccc(C2CCCc3c2cc(Cl)c(OCCCl)c3Cl)cn1` (stereo not drawn) [HANT-101], the IC50 was 1000 to 2000 nM.

`Oc1ccc(C2CCCc3c2cc(Cl)c(OCCCl)c3Cl)nc1` (stereo not drawn) [HANT-102, 6-(5,7-dichloro-6-(2-chloroethoxy)-1,2,3,4-tetrahydronaphthalen-1-yl)pyridin-3-ol] showed an IC50 of 500 to 1000 nM.

`Fc1cc2c(c(F)c1OCCCl)CCCC2c1ccc2[nH]ncc2c1` (stereo not drawn) [HANT-103, 5-(6-(2-chloroethoxy)-5,7-difluoro-1,2,3,4-tetrahydronaphthalen-1-yl)-1H indazole] showed an IC50 of 500 to 1000 nM.

Work on `N#Cc1cc2c(c(Cl)c1OCCCl)CCCC2c1ccc(O)cc1` (stereo not drawn) [HANT-105, 4-chloro-3-(2-chloroethoxy)-8-(4-hydroxyphenyl)-5,6,7,8-tetrahydronaphthalene-2-carbonitrile] yielded an IC50 of 1 to 500 nM.

`N#Cc1c2c(cc(Cl)c1OCCCl)C(c1ccc(O)cc1)CCC2` (stereo not drawn) [HANT-106, 3-chloro-2-(2-chloroethoxy)-5-(4-hydroxyphenyl)-5,6,7,8-tetrahydronaphthalene-1-carbonitrile] gave an IC50 of 1 to 500 nM.

Molecule `Oc1ccc(C2CCc3cc(OCCCl)c(Cl)cc32)cc1` (stereo not drawn) [HANT-107, 4-(6-chloro-5-(2-chloroethoxy)-2,3-dihydro-1H-inden-1-yl)phenol] has an IC50 of 1000 to 2000 nM.

For `Oc1ccc(C2CCc3c2ccc(OCCCl)c3Cl)cc1` (stereo not drawn) [HANT-108, 4-(4-chloro-5-(2-chloroethoxy)-2,3-dihydro-1H-inden-1-yl)phenol], the IC50 was 1 to 500 nM.

`Oc1ccc(C2CCCc3c2cc(Cl)c(OCCCl)c3Cl)cc1F` (stereo not drawn) [HANT-109] showed an IC50 of 1000 to 2000 nM.

For `Oc1ccc(C2CCCc3c2cc(Cl)c(OCCCl)c3Cl)c(F)c1` (stereo not drawn) [HANT-110, 4-(5,7-dichloro-6-(2-chloroethoxy)-1,2,3,4-tetrahydronaphthalen-1-yl)-3-fluorophenol], the IC50 was 1 to 500 nM.

`ClCCOc1c(Cl)cc2c(c1Cl)CCCC2c1ccc2[nH]cnc2c1` (stereo not drawn) [HANT-112] was tested, and the IC50 was 500 to 1000 nM.

With `ClCCOc1c(Cl)cc2c(c1Cl)CCCC2c1ccc2[nH]nnc2c1` (stereo not drawn) [HANT-113, 5-(5,7-dichloro-6-(2-chloroethoxy)-1,2,3,4-tetrahydronaphthalen-1-yl)-1H-benzo[d][1,2,3]triaz ole] the IC50 was 500 to 1000 nM.

In the case of `O=c1[nH]c2ccc(C3CCCc4c3cc(Cl)c(OCCCl)c4Cl)cc2o1` (stereo not drawn) [HANT-114], the IC50 is reported as 1 to 500 nM.

`CN1CCc2c(cc(Cl)c(OCCCl)c2Cl)C1c1ccc(O)cc1` (stereo not drawn) [HANT-115, 4-(5,7-dichloro-6-(2-chloroethoxy)-2-methyl-1,2,3,4-tetrahydroisoquinolin-1-yl)phenol] showed an IC50 of 1 to 500 nM.

In the case of `Cn1c(=O)[nH]c2ccc(C3CCCc4c3cc(Cl)c(OCCCl)c4Cl)cc21` (stereo not drawn) [HANT-117], the IC50 is reported as 1000 to 2000 nM.

With `ClCCOc1c(Cl)cc2c(c1Cl)CCC[C@H]2c1ccc2[nH]ncc2c1` [HANT-118] the IC50 was 1 to 500 nM.

Molecule `CCCOc1c(C#N)cc2c(c1Cl)CCCC2Nc1ccc(OC)nc1` (stereo not drawn) [HANT-121] has an IC50 of 1 to 500 nM.

With `N#Cc1cc2c(c(Cl)c1OCCCl)CCCC2Nc1ccc(OCCO)nc1` (stereo not drawn) [HANT-122] the IC50 was 1 to 500 nM.

`OC1CCN(C2CCCc3c2cc(Cl)c(OCCCl)c3Cl)CC1` (stereo not drawn) [HANT-123] was tested, and the IC50 was 500 to 1000 nM.

`Oc1ccc2c(c1)CCN(C1CCCc3c1cc(Cl)c(OCCCl)c3Cl)C2` (stereo not drawn) [HANT-124, 2-(5,7-dichloro-6-(2-chloroethoxy)-1,2,3,4-tetrahydronaphthalen-1-yl)-1,2,3,4-tetrahydroisoqui nolin-6-ol] showed an IC50 of over 2000 nM.

`ClCCOc1c(Cl)cc2c(c1Cl)CCCC2N1CCc2[nH]ncc2C1` (stereo not drawn) [HANT-125] was tested, and the IC50 was 1 to 500 nM.

`ClCCOc1c(Cl)cc2c(c1Cl)CCCC2N1CCc2cn[nH]c2C1` (stereo not drawn) [HANT-126] showed an IC50 of 500 to 1000 nM.

`ClCCOc1c(Cl)cc2c(c1Cl)CCCN2c1ccc2[nH]ncc2c1` [HANT-127, 5,7-dichloro-6-(2-chloroethoxy)-1-(1H-indazol-5-yl)-1,2,3,4-tetrahydroquinoline] was tested, and the IC50 was 500 to 1000 nM.

Molecule `Cn1ncc2cc(C3CCCc4c3cc(Cl)c(OCCCl)c4Cl)ccc21` (stereo not drawn) [HANT-131] has an IC50 of over 2000 nM.

`CNC(=O)c1n[nH]c2ccc(C3CCCc4c3cc(Cl)c(OCCCl)c4Cl)cc12` (stereo not drawn) [HANT-132, 5-(5,7-dichloro-6-(2-chloroethoxy)-1,2,3,4-tetrahydronaphthalen-1-yl)-N-methyl-1H-indazole-3-carboxamide] was tested, and the IC50 was over 2000 nM.

`Nc1n[nH]c2ccc(C3CCCc4c3cc(Cl)c(OCCCl)c4Cl)cc12` (stereo not drawn) [HANT-133, 5-(5,7-dichloro-6-(2-chloroethoxy)-1,2,3,4-tetrahydronaphthalen-1-yl)-1H-indazol-3-amine] gave an IC50 of 1000 to 2000 nM.

`ClCCOc1c(Cl)cc2c(c1Cl)CCCC2c1ccc2cn[nH]c2c1` (stereo not drawn) [HANT-134] showed an IC50 of 1 to 500 nM.

`O=C1Cc2cc(C3CCCc4c3cc(Cl)c(OCCCl)c4Cl)ccc2N1` (stereo not drawn) [HANT-135] was tested, and the IC50 was 1 to 500 nM.

`COc1cc(O)ccc1C1CCCc2c1cc(Cl)c(OCCCl)c2Cl` (stereo not drawn) [HANT-137] was tested, and the IC50 was 1000 to 2000 nM.

`N#Cc1cc2c(c(Cl)c1OCCCl)CCCC2c1ccc2[nH]ncc2c1` (stereo not drawn) [HANT-144A, 4-chloro-3-(2-chloroethoxy)-8-(1H-indazol-5-yl)-5,6,7,8-tetrahydronaphthalene-2-carbonitrile] showed an IC50 of over 2000 nM.

Molecule `N#Cc1cc2c(c(Cl)c1OCCCl)CCCC2c1ccc2[nH]ncc2c1` (stereo not drawn) [HANT-144B, 4-chloro-3-(2-chloroethoxy)-8-(1H-indazol-5-yl)-5,6,7,8-tetrahydronaphthalene-2-carbonitrile] has an IC50 of 1 to 500 nM.

`N#Cc1cc2c(c(Cl)c1OCCCl)CCCC2c1ccc2[nH]ncc2n1` (stereo not drawn) [HANT-148, 4-chloro-3-(2-chloroethoxy)-8-(1H-pyrazolo[4,3-b]pyridin-5-yl)-5,6,7,8-tetrahydronaphthalene-2-carbonitrile] showed an IC50 of 500 to 1000 nM.

`N#Cc1cc2c(c(Cl)c1OCCCl)CCCC2c1cc2cn[nH]c2cn1` (stereo not drawn) [HANT-149] showed an IC50 of 1 to 500 nM.

With `N#Cc1cc2c(c(Cl)c1OCCCl)CCCC2c1cnc2[nH]ncc2c1` (stereo not drawn) [HANT-150A, 4-chloro-3-(2-chloroethoxy)-8-(1H-pyrazolo[3,4-b]pyridin-5-yl)-5,6,7,8-tetrahydronaphthalene-2-carbonitrile] the IC50 was 1 to 500 nM.

In the case of `N#Cc1cc2c(c(Cl)c1OCCCl)CCCC2c1cnc2[nH]ncc2c1` (stereo not drawn) [HANT-150B, 4-chloro-3-(2-chloroethoxy)-8-(1H-pyrazolo[3,4-b]pyridin-5-yl)-5,6,7,8-tetrahydronaphthalene-2-carbonitrile], the IC50 is reported as over 2000 nM.

Molecule `ClCCOc1c(Cl)cc2c(c1Cl)CCCN2c1cc2cn[nH]c2cn1` [HANT-164, 5,7-dichloro-6-(2-chloroethoxy)-1-(1H-pyrazolo[3,4-c]pyridin-5-yl)-1,2,3,4-tetrahydroquinoline] has an IC50 of over 2000 nM.

Molecule `ClCCOc1c(Cl)cc2c(c1Cl)CCCN2c1ccc2[nH]ncc2n1` [HANT-165, 5,7-dichloro-6-(2-chloroethoxy)-1-(1H-pyrazolo[4,3-b]pyridin-5-yl)-1,2,3,4-tetrahydroquinoline] has an IC50 of over 2000 nM.

Molecule `ClCCOc1c(Cl)cc2c(c1Cl)CCCN2c1cnc2[nH]ncc2c1` [HANT-166, 5,7-dichloro-6-(2-chloroethoxy)-1-(1H-pyrazolo[3,4-b]pyridin-5-yl)-1,2,3,4-tetrahydroquinoline] has an IC50 of 500 to 1000 nM.

For `N#Cc1cc2c(c(Cl)c1OCCCl)CCCC2Nc1ccc(N2CCOCC2)nc1` (stereo not drawn) [HANT-170], the IC50 was 500 to 1000 nM.
